# Earlier results, collected in patent US5288707A, “Borolysine peptidomimetics” (Sandoz Ltd., priority 1990, dated 1994).
# Key:
# thrombin = thrombin (Homo sapiens, UniProt P00734); conditions: reversible and irreversible inhibitors, value given as a range of magnitude
# [1] = in vivo
Structure (SMILES),inhibition in vitro (thrombin),LD50 value [1]
N=C(N)NCCC[C@@H](C=O)NC(=O)[C@@H]1CCCN1C(=O)[C@H](N)Cc1ccccc1 [D-Phe-Pro-Arginal],~10^-8 M,quite a low
NC(N)=NCCC[C@H](NC(=O)[C@@H]1CCCN1C(=O)[C@H](N)Cc1ccccc1)C(=O)CCl [D-Phe-Pro-Arg-CH2 Cl],~10^-8 M,–
